Laboratory results from patent US11878972B2, “Treatment of neurological disorders” (TORQUR AG, priority 2016, dated 2024).
pIC50: −log10 of the molar value.

Columns and labels:
[1] = target: T1, N-terminally GST-tagged mTOR (truncated version: amino acids 1360-2549) (Homo sapiens, UniProt P42345); assay: In vitro mTOR binding assay (LanthaScreen TR-FRET); conditions: 3 nM GST-mTOR, 10 nM Tracer 314, 30 min at RT
T1 construct: truncated version: amino acids 1360-2549; purchased Life Technologies PR8683B
Description: A 10-point 4-fold serial dilution (highest concentration at 10 μmol/L and lowest concentration at 40 pmol/L) of each compound was tested for mTOR binding in duplicate in a 384-well plate. […] After 30 min incubation at RT, time-resolved FRET was measured with a Synergy 4 multi-mode microplate reader (Biotek Instruments) using the following settings: 100 microsecs delay before data collection, 200 microsecs time for data collection, 10 measurements per data point.
IC50 values of each compound were determined by plotting the emission ratio versus the compound concentrations (in logarithmic scale) and then by fitting a sigmoidal dose-response curve with variable slope to the data using GraphPad™ Prism.

[2] = system: S6 phosphorylation (S235/236); assay: mTOR signaling in brain samples of pilocarpine pre-treated and naïve mice (western blot); type: in vivo, mouse; conditions: for decrease of S6 phosphorylation (S235/236) versus control: brain, 3 hours after single oral dose: Cpd. 3 40 mg/kg, Cpd. 8 25 mg/kg, everolimus 5 mg/kg
Description: A ramping-up dosing protocol was used which has the advantage that pilocarpine can be individually applied according to the susceptibility of each mouse. Pilocarpine (Sigma-Aldrich, Germany) was administered to female NMRI mice intraperitoneally at a dose of 100 mg/kg (Pilo-SE group). […] To reduce peripheral side effects of pilocarpine, methylscopolamine (Sigma-Aldrich, Germany) was administered 30 minutes prior to the first injection of pilocarpine. Animals were continuously monitored and duration of convulsive SE was registered [referred to Racine's scale. SE onset was defined as continuous ongoing seizure activity following occurrence of one or two generalized tonic-clonic seizures [stage 4 or 5 on the Racine scale]. SE was characterized by head nodding in an upright (sitting) body position, Straub tail, and slight to moderate convulsions of forelimbs, sometimes interrupted by further generalized tonic-clonic seizures. In order to reduce mortality, SE was terminated by diazepam (10 mg/kg i.p.; diazepam-ratiopharm 10, injection solution) 90 min after SE onset. […] In the sham-SE group mice were treated with the same treatment scheme as the pilo-SE group but pilocarpine was replaced by 0.9% sodium chloride solution. The mortality in the pilo-SE model in mice is relatively high (overall about 50%) and can vary markedly between experimental groups/days. Therefore we had to start with a large number of mice for SE induction in order to reliably obtain a group size of 20-22 animals for the MEST.
Brain samples from pilocarpine treated mice and untreated mice were snap frozen and tissue was lysed in buffer containing 25 mM Tris-HCl, pH 8, 50 mM NaCl, 0.5% (w/v) sodium deoxycholate (DOC), and 0.5% (w/v) Triton X-100 and supplemented with complete protease inhibitor (Roche, Mannheim, Germany) and Phosphostop (NEB, USA). Disruption of cell lysates was performed by drawing up the cell suspension twenty times into a syringe with a small gauge needle (21 G) on ice. Protein concentrations in the lysates were determined by using the Pierce BCA Protein Assay kit (Thermo Scientific, Bonn, Germany) according to the manufacturer's instructions. […] Membranes were incubated with primary antibodies anti S6 1:1000, anti S6 Phospho Serin (240/244) 1:1000, anti S6 Phospho Serin (235/236) 1:2000 (NEB) and anti-Actin 1:100 (Sigma-Aldrich) for 1 h in 2% milk in PBST at room temperature (RT) and washed three times for 10 min in PBS-T. Secondary antibodies anti-rabbit-HRP 1:1000 (Dako, Hamburg, Germany) were incubated for 1 h in 2% milk in PBST at RT and washed three times for 10 min in PBST. Proteins were detected by enhanced chemiluminescence using SuperSignal West Femto Chemiluminescent Substrate (Thermo Scientific) and the ChemiDoc system (Bio-Rad, Munich, Germany) with QuantityOne software (Bio-Rad) according to the manufacturer's protocol. Relative protein expressions were quantified densitometrically with QuantityOne (Bio-Rad) software and calculated by normalization to the reference signals of actin with GraphPad Prism software (GraphPad, San Diego, CA, USA).
Pilocarpine pre-treated and naïve mice were treated with a single oral dose of Cpd. 3 (40 mg/kg), Cpd. 8 (25 mg/kg), everolimus (5 mg/kg) or vehicle. 5 mice per group were utilized and sacrificed after 3 hours.

[3] = system: female NMRI mice, nonepileptic (sham-SE) and epileptic (pilo-SE); assay: Maximal electroshock seizure threshold test (MEST); type: in vivo, mouse; conditions: pretreatment 3 h
Description: A total of 166 adult female NMRI mice were used obtained from Charles River (Sulzfeld, Germany) at a weight range of 21-25 g (mice). Animals were kept under the following conditions: Housing: Animals were housed in groups of max. 8 mice under controlled conditions (temperature: 22±1° C.; humidity: 50% 60%/), under a 12-h light-dark cycle (lights on at 6:00 a.m.). Feeding: Standard laboratory chow (Altromin 1324 standard diet, Altromin Spezialfutter GmbH, Lage, Germany) was provided ad libitum. Drinking water: Tap water was provided ad libitum.
The MEST determines a population seizure threshold in groups of ˜20 animals and not the threshold for an individual animal. In the present study, the MEST was determined by a staircase procedure as previously described. A stimulator (BMT Medizintechnik, Berlin, Germany) that delivered a constant current (adjustable from 1-200 mA regardless of the impedance of the animal) with sinusoidal pulses (50/sec) for 0.2 sec was used.
Current administration was performed via bilateral transcorneal stimulation (using copper electrodes). Before transcorneal stimulation, a drop of tetracaine solution (2%) was administered to the eyes of the mouse for local anesthesia. Two minutes later, the mouse was restrained by hand to press the copper electrodes on both corneas while the stimulus was applied by stepping on a foot pedal switch connected with the stimulator. Electrodes were covered with soft leather and soaked with saline before each current application. […] The first stimulation was started with a current near to the control threshold.
3 (HCl): 40/100 mg in 10 ml (Suspension; 5% PEG 400 and 2% Tween 80, HPBCD (10%6)) • Cpd. 8 (HCl): 12.5/25 mg in 10 ml (5% PEG 400 and 2% Tween 80, HPBCD (10%))
Statistical analysis were calculated using Student's t-test. All tests were used two-sided; a P<0.05 was considered significant.
We performed no special tests for the determination of adverse effects. Mice were observed about 30 min after injection in their home cages for obvious sedation or reduction of wellbeing. Five minutes before electrical stimulation mice were again observed in their home cages and two minutes before stimulation during handling procedure for treatment with local anaesthesia. Every obvious variation from normal behavior was noted. Only phenobarbital induced noticeable sedation which lasted for more than 60 min. All other test drugs (including vehicle solutions) were tolerated without any obvious adverse effects.

T1 sequence (P42345 1360-2549): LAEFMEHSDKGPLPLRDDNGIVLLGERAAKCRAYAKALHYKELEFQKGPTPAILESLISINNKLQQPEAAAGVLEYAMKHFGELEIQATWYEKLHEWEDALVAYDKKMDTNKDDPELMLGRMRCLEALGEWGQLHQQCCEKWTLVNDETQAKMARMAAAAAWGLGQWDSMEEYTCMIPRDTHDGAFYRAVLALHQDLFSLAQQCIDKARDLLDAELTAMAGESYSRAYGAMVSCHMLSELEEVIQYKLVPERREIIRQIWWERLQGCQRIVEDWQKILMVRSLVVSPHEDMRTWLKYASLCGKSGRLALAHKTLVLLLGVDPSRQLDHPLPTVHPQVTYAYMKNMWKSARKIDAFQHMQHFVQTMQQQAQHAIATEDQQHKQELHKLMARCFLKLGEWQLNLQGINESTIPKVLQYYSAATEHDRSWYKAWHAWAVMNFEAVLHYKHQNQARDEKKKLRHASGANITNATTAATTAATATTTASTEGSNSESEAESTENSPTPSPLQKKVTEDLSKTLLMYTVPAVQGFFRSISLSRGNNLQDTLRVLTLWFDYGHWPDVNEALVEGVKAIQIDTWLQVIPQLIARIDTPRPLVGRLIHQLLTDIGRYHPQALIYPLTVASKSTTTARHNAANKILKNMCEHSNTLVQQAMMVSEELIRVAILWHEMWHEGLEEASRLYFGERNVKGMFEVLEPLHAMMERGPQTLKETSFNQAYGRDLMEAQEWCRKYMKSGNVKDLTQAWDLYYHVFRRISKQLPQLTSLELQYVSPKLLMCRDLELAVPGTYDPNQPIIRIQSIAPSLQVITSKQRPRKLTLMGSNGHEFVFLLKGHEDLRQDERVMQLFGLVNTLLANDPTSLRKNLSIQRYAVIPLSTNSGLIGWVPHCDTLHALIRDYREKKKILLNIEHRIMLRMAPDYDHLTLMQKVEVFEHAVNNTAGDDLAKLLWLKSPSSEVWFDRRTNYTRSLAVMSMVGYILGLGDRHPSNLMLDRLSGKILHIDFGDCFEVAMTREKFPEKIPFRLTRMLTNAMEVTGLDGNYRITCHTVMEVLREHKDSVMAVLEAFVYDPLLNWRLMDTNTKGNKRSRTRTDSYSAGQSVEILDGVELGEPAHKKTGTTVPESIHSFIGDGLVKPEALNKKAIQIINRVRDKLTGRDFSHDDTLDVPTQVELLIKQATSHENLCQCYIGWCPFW

SMILES: Nc1cc(C(F)(F)F)c(-c2nc(N3CCNCC3)nc(N3CCOCC3)n2)cn1
- pIC50 [1]: 6.10

SMILES: Nc1ncc(-c2nc(N3CCNCC3)nc(N3CCOCC3)n2)c(C(F)(F)F)n1
- pIC50 [1]: 5.55

SMILES: Nc1cc(C(F)(F)F)c(-c2nc(N3CCOCC3)nc(N3CCSCC3)n2)cn1
- pIC50 [1]: 6.93

SMILES: Nc1ncc(-c2nc(N3CCOCC3)nc(N3CCSCC3)n2)c(C(F)(F)F)n1
- pIC50 [1]: 6.40

SMILES: CO[C@H]1C[C@@H]2CC[C@@H](C)[C@@](O)(O2)C(=O)C(=O)N2CCCC[C@H]2C(=O)O[C@H]([C@H](C)C[C@@H]2CC[C@@H](OCCO)[C@H](OC)C2)CC(=O)[C@H](C)/C=C(\C)[C@@H](O)[C@@H](OC)C(=O)[C@H](C)C[C@H](C)/C=C/C=C/C=C/1C [everolimus, reference compound]
- decrease of S6 phosphorylation (S235/236) versus control ([2]; epileptic (pilocarpine pre-treated) mice): No significant changes
- S6 phosphorylation / mTOR signaling in brain (FIG. 3B) ([2]; epileptic/pilocarpine pre-treated and naïve mice, single oral dose): did not show significant mTOR signaling inhibition in brain
- decrease of S6 phosphorylation (S235/236) versus control ([2]; naïve mice): No significant changes
- Threshold difference between nonepileptic and epileptic ([3]; 5 mg/kg everolimus p.o.): 20%
- Threshold difference between vehicle and drug threshold, epileptic ([3]; 5 mg/kg everolimus p.o.): 16%
- Threshold difference between vehicle and drug threshold, nonepileptic ([3]; 5 mg/kg everolimus p.o.): 13%
- Threshold difference between nonepileptic and epileptic ([3]; 10 mg/kg everolimus p.o.): 1%
- Threshold difference between vehicle and drug threshold, nonepileptic ([3]; 10 mg/kg everolimus p.o.): 10%
